Source: US20240287172A1, “PROTEIN BINDERS TO IRHOM2 EPITOPES” (SCIRHOM GMBH, priority 2019, published 2024)

Tested on: PMA-induced release of endogenous TNFα from human monocytic U-937 cells
Assay: ELISA-based TNFα release assay, PMA-induced, U-937 cells
Assay type: cell-based
Settings: U-937, 1 h, PMA 25 ng/ml, Batimastat at 10 μM
Procedure: In brief, on day 1, Nunc black MaxiSorp® 96-well plates (Thermo Fisher Scientific, USA) were coated overnight with 100 μl per well of mouse anti-human TNFα capture antibody (provided as part of the DuoSet ELISA kit) at 4 μg/ml TBS at 4° C. On day 2, the capture antibody solution was removed and MaxiSorp® plates were blocked with 300 μl per well of TBS, 1% BSA at room temperature for 1-2 hours. Meanwhile, 80,000 U-937 (European Collection of Authenticated Cell Cultures, UK) cells in 80 μl of normal growth medium were seeded in each well of Greiner CELLSTAR V-bottom 96-well plates (Thermo Fisher Scientific, USA) and pre-incubated with 20 μl per well of standard growth medium supplemented with Batimastat (BB94, Abcam, UK) at 50 μM as positive control (for a final concentration of 10 μM in the resulting 100 μl sample volume), mouse IgG antibody (Thermo Fisher Scientific, USA) at 5 μg/ml as isotype control (for a final concentration of 1 μg/ml in the resulting 100 μl sample volume) or antibodies of the invention at 5 μg/ml (for a final concentration of 1 μg/ml in the resulting 100 μl sample volume) at 37° C., 5% CO2 for 30 minutes. […] Using an infinite M1000 (Tecan Group, Switzerland) microplate reader, the fluorescence of each well was collected at an excitation wavelength of 435 nm and an emission wavelength of 555 nm. […]

`CNC(=O)[C@H](Cc1ccccc1)NC(=O)[C@H](CC(C)C)[C@H](CSc1cccs1)C(=O)NO` [Batimastat] showed an inhibition at 10 µM (murine (m) and chimeric (ch) antibodies and IgG at 3 μg/ml) of 98.7% and an inhibition at 10 µM (recombinant murine antibodies and IgG at 1 μg/ml) of 100%.
